Test results as given in patent publication US20040115160A1, “Quaternary ammonium esters for disinfection and preservation” (priority 2002, published 2004).
Counter-ions that a name gives are not always drawn. Like-named read-outs stand apart in the source and are kept apart here. Values belong to the molecule of their own block, whether it stands above or below them.

Experiments:
[1] = tested on: Candida albicans (ATCC 10231); assay: Stand-alone biocidal test without organic soil; type: cell-based; details: 25 ppm in BBS; for log reduction at 25 ppm: Candida albicans, ATCC10231, without organic soil, read-out: Stand-alone biocidal result (microbial log reduction) C. albicans
Method: (§1) A test was conducted to study the microbiocidal efficacy of a solution containing a quaternary ammonium ester of the present invention employing borate buffered saline (BBS). The antimicrobial efficacy of each of the various compositions for the chemical disinfection of contact lenses was evaluated. Microbial challenge inoculums were prepared using Pseudomonas aeruginosa (ATCC 9027), Staphylococcus aureus (ATCC 6538), Serratia marcescens (ATCC 13880), Candida albicans (ATCC 10231) and Fusarium solani (ATCC 36031). The test organisms were cultured on appropriate agar and the cultures were harvested using sterile DPBST (Dulbecco's Phosphate Buffered Saline plus 0.05 percent weight/volume polysorbate 80) or a suitable diluent and transferred to a suitable vessel. Spore suspensions were filtered through sterile glass wool to remove hyphal fragments. Serratia marcescens, as appropriate, was filtered through a 1.2 mμ filter to clarify the suspension. After harvesting, the suspension was centrifuged at no more than 5000×g for a maximum of 30 minutes at 20 to 25° C. The supernatant was poured off and resuspended in DPBST or other suitable diluent. The suspension was centrifuged a second time, and resuspended in DPBST or other suitable diluent. All challenge bacterial and fungal cell suspensions were adjusted with DPBST or other suitable diluent to 1×10^7 to 1×10^8 cfu/ml. The appropriate cell concentration may be estimated by measuring the turbidity of the suspension, for example, using a spectrophotometer at a preselected wavelength, for example 490 nm. One tube was prepared containing a minimum of 10 ml of test solution per challenge organism. Each tube of the solution to be tested was inoculated with a suspension of the test organism sufficient to provide a final count of 1×10^5 to 1×10^6 cfu/ml, the volume of the inoculum not exceeding 1 percent of the sample volume. Dispersion of the inoculum was ensured by vortexing the sample for at least 15 seconds. The inoculated product was stored at 10 to 25° C. Aliquots in the amount of 1.0 ml were taken of the inoculated product for determination of viable counts after certain time periods of disinfection. The time points for the bacteria were, for example, 1, 2, 3 and 4 hours when the proposed regimen soaking time was four hours. Yeast and mold were tested at an additional timepoint of 16 hours (4 times the regimen time). The suspension was mixed well by vortexing vigorously for at least 5 seconds. The 1.0 ml aliquots removed at the specified time intervals were subjected to a suitable series of decimal dilutions in validated neutralizing media. The suspensions were mixed vigorously and incubated for a suitable period of time to allow for neutralization of the microbial agent at room temperature. The viable count of organisms was determined in appropriate dilutions by preparation of triplicate plates of trypticase soy (TSA) agar for bacteria and Sabouraud dextrose agar (SDA) for mold and yeast. The bacterial recovery plates were incubated at 30 to 35° C. for two to four days. The yeast was incubated at 20 to 30° C. for two to four days and mold recovery plates were incubated at 20 to 25° C. for three to seven days. The average number of colony forming units was determined on countable plates. Countable plates refer to 30 to 300 cfu/plates for bacteria and yeast, and 8 to 80 cfu/plate for mold except when colonies are observed only for the 10^0 or 10^−1 dilution plates. The microbial reduction was then calculated at the specified time points. […] Following inoculation in a validated neutralizing broth and incubation for an appropriate period of time, the inoculum control must be between 1.0×10^5 to 1.0×10^6 cfu/ml. […]

[2] = tested on: Fusarium solani (ATCC 36031); assay: Stand-alone biocidal test without organic soil; type: cell-based; details: 25 ppm in BBS; for log reduction at 25 ppm: Fusarium solani, ATCC36031, without organic soil, read-out: Stand-alone biocidal result (microbial log reduction) F. solani
Method: as §1

[3] = tested on: Pseudomonas aeruginosa (ATCC 9027); assay: Stand-alone biocidal test without organic soil; type: cell-based; details: 25 ppm in BBS; for Stand-alone biocidal result (microbial log reduction) P. aeruginosa: without organic soil
Method: as §1

[4] = tested on: Serratia marcescens (ATCC 13880); assay: Stand-alone biocidal test without organic soil; type: cell-based; details: 25 ppm in BBS; for Stand-alone biocidal result (microbial log reduction) S. marcescens: without organic soil
Method: as §1

[5] = tested on: Staphylococcus aureus (ATCC 6538); assay: Stand-alone biocidal test without organic soil; type: cell-based; details: 25 ppm in BBS; for Stand-alone biocidal result (microbial log reduction) S. aureus: without organic soil
Method: as §1

- melting point: 90 to 91 °C
Structure (SMILES): CCCCCCCCCCCCCC(=O)OCCC[N+](C)(C)CCCCC (as salt: iodide) [Compound 11, N-myristoyloxypropyl-N,N-dimethyl-N-pentylammonium iodide]

Structure (SMILES): CCCCCCCCCCCC(=O)OCCC[N+](C)(C)C [Compound 4, N-lauroyloxypropyl-N,N,N-trimethylammonium iodide]
- log reduction at 25 ppm ([1]; 1 hr.): 0
- log reduction at 25 ppm ([1]; 4 hr.): 0.1
- log reduction at 25 ppm ([2]; 1 hr.): 0.1
- log reduction at 25 ppm ([2]; 4 hr.): 0.6
- Stand-alone biocidal result (microbial log reduction) P. aeruginosa ([3]; 1 hr.): 2.0
- Stand-alone biocidal result (microbial log reduction) P. aeruginosa ([3]; 4 hr.): 3.0
- Stand-alone biocidal result (microbial log reduction) S. marcescens ([4]; 1 hr.): TNTC
- Stand-alone biocidal result (microbial log reduction) S. marcescens ([4]; 4 hr.): TNTC
- Stand-alone biocidal result (microbial log reduction) S. aureus ([5]; 1 hr.): TNTC
- Stand-alone biocidal result (microbial log reduction) S. aureus ([5]; 4 hr.): TNTC

- melting point: 92 to 94 °C
Structure (SMILES): CCCCCCCCCCCCCC(=O)OCCOCC[N+](C)(C)C (as salt: iodide) [Compound 15, N-myristoyloxyethoxyethyl-N,N,N-trimethylammonium iodide]

Structure (SMILES): CCCCCCCCCCCCCC(=O)NCCC[N+](C)(C)C.[I-] [N-myristamidopropyl-N,N,N-trimethylammonium iodide, reference compound]
- Effectiveness against C. albicans (stand-alone biocidal data) [1]: failed
- Effectiveness against F. solani (stand-alone biocidal data) [2]: failed
- Effectiveness against P. aeruginosa (stand-alone biocidal data) [3]: proved effective
- Effectiveness against S. marcescens (stand-alone biocidal data) [4]: failed
- Effectiveness against S. aureus (stand-alone biocidal data) [5]: proved effective

Structure (SMILES): CCCCCCCCCCCCCC(=O)OCCCN(C)C [N-myristoyloxypropyl-N,B-dimethylamine, reference compound]
- Effectiveness against C. albicans (stand-alone biocidal data) [1]: failed to be effective
- Effectiveness against F. solani (stand-alone biocidal data) [2]: failed to be effective
- Effectiveness against P. aeruginosa (stand-alone biocidal data) [3]: failed to be effective
- Effectiveness against S. marcescens (stand-alone biocidal data) [4]: failed to be effective
- Effectiveness against S. aureus (stand-alone biocidal data) [5]: failed to be effective

- melting point: 87 to 89 °C
Structure (SMILES): CCCCCCCCCCCCCC(=O)OCCC[N+](C)(C)CCCC (as salt: iodide) [Compound 10, N-myristoyloxypropyl-N-butyl-N,N-dimethylammonium iodide]

- melting point: 60 to 62 °C
Structure (SMILES): CCCCCCCCCCCCCC(=O)OCCC[N+](C)(C)CC (as salt: iodide) [Compound 8, N-myristoyloxypropyl-N,N-dimethyl-N-ethylammonium iodide]

Structure (SMILES): CCCCCCCCCCCCCC(=O)OCCC[N+](C)(C)CCCC [Compound 10, N-myristoyloxypropyl-N-butyl-N,N-dimethylammonium iodide]
- log reduction at 25 ppm ([1]; 1 hr.): 4.5
- log reduction at 25 ppm ([1]; 4 hr.): > 4.8
- log reduction at 25 ppm ([2]; 1 hr.): > 4.5
- log reduction at 25 ppm ([2]; 4 hr.): > 4.5
- Stand-alone biocidal result (microbial log reduction) P. aeruginosa ([3]; 1 hr.): >4.7
- Stand-alone biocidal result (microbial log reduction) P. aeruginosa ([3]; 4 hr.): 4.7
- Stand-alone biocidal result (microbial log reduction) S. marcescens ([4]; 1 hr.): 3.8
- Stand-alone biocidal result (microbial log reduction) S. marcescens ([4]; 4 hr.): >4.8
- Stand-alone biocidal result (microbial log reduction) S. aureus ([5]; 1 hr.): >4.8
- Stand-alone biocidal result (microbial log reduction) S. aureus ([5]; 4 hr.): >4.8

Structure (SMILES): CCCCCCCCCCCCCC(=O)OCCC[N+](C)(C)Cc1ccccc1 (as salt: chloride) [Compound 1, N-myristoyloxypropyl-N-benzyl-N,N-dimethylammonium chloride]
- melting point: 93 to 95 °C

Structure (SMILES): CCCCCCCCCCCCCC(=O)OCCC[N+](C)(C)CCCCCCCCCC [Compound 13, N-myristoyloxypropyl-N-decyl-N,N-dimethylammonium iodide]
- log reduction at 25 ppm ([1]; 1 hr.): 0.5
- log reduction at 25 ppm ([1]; 4 hr.): 1.2
- log reduction at 25 ppm ([2]; 1 hr.): 1.5
- log reduction at 25 ppm ([2]; 4 hr.): 3.1
- Stand-alone biocidal result (microbial log reduction) P. aeruginosa ([3]; 1 hr.): 3.5
- Stand-alone biocidal result (microbial log reduction) P. aeruginosa ([3]; 4 hr.): 4.7
- Stand-alone biocidal result (microbial log reduction) S. marcescens ([4]; 1 hr.): TNTC
- Stand-alone biocidal result (microbial log reduction) S. marcescens ([4]; 4 hr.): 2.9
- Stand-alone biocidal result (microbial log reduction) S. aureus ([5]; 1 hr.): 3.8
- Stand-alone biocidal result (microbial log reduction) S. aureus ([5]; 4 hr.): 4.8

Structure (SMILES): CCCCCCCCCCCCCC(=O)OCCC[N+](C)(C)C [Compound 5, N-myristoyloxypropyl-N,N,N-trimethylammonium iodide]
- log reduction at 25 ppm ([1]; 1 hr.): 1.9
- log reduction at 25 ppm ([1]; 4 hr.): 3.4
- log reduction at 25 ppm ([2]; 1 hr.): 3.2
- log reduction at 25 ppm ([2]; 4 hr.): 3.3
- Stand-alone biocidal result (microbial log reduction) P. aeruginosa ([3]; 1 hr.): >4.6
- Stand-alone biocidal result (microbial log reduction) P. aeruginosa ([3]; 4 hr.): >4.6
- Stand-alone biocidal result (microbial log reduction) S. marcescens ([4]; 1 hr.): 3.4
- Stand-alone biocidal result (microbial log reduction) S. marcescens ([4]; 4 hr.): >4.6
- Stand-alone biocidal result (microbial log reduction) S. aureus ([5]; 1 hr.): >4.7
- Stand-alone biocidal result (microbial log reduction) S. aureus ([5]; 4 hr.): >4.7

- melting point: 80 to 82 °C
Structure (SMILES): CCCCCCCCCCCCCC(=O)OCCC[N+](C)(C)CCC (as salt: iodide) [Compound 9, N-myristoyloxypropyl-N,N-dimethyl-N-propylammonium iodide]

- melting point: 116 to 118 °C
Structure (SMILES): CCCCCCCCCCCCCCCC(=O)OCCC[N+](C)(C)C (as salt: iodide) [Compound 6, N-palmitoyloxypropyl-N,N,N-trimethylammonium iodide]

Structure (SMILES): CCCCCCCCCCCCCCCCCC(=O)OCCC[N+](C)(C)C [Compound 7, N-stearoyloxypropyl-N,N,N-trimethylammonium iodide]
- log reduction at 25 ppm ([1]; 1 hr.): 0.7
- log reduction at 25 ppm ([1]; 4 hr.): 2.5
- log reduction at 25 ppm ([2]; 1 hr.): 2.9
- log reduction at 25 ppm ([2]; 4 hr.): 3.5
- Stand-alone biocidal result (microbial log reduction) P. aeruginosa ([3]; 1 hr.): 2.0
- Stand-alone biocidal result (microbial log reduction) P. aeruginosa ([3]; 4 hr.): 3.3
- Stand-alone biocidal result (microbial log reduction) S. marcescens ([4]; 1 hr.): TNTC
- Stand-alone biocidal result (microbial log reduction) S. marcescens ([4]; 4 hr.): TNTC
- Stand-alone biocidal result (microbial log reduction) S. aureus ([5]; 1 hr.): 3.5
- Stand-alone biocidal result (microbial log reduction) S. aureus ([5]; 4 hr.): >4.8

Structure (SMILES): CCCCCCCCCCCCCC(=O)NCCCN(C)C [N-myristamidopropyl-N,N-dimethylamine, reference compound]
- Effectiveness against C. albicans (stand-alone biocidal data) [1]: effective
- Effectiveness against F. solani (stand-alone biocidal data) [2]: effective
- Effectiveness against P. aeruginosa (stand-alone biocidal data) [3]: effective
- Effectiveness against S. marcescens (stand-alone biocidal data) [4]: not effective
- Effectiveness against S. aureus (stand-alone biocidal data) [5]: effective

Structure (SMILES): CCCCCCCCCCCCCC(=O)OCCOCC[N+](C)(C)C [Compound 15, N-myristoyloxyethoxyethyl-N,N,N-trimethylammonium iodide]
- log reduction at 25 ppm ([1]; 1 hr.): 3.6
- log reduction at 25 ppm ([1]; 4 hr.): 4.6
- log reduction at 25 ppm ([2]; 1 hr.): 3.8
- log reduction at 25 ppm ([2]; 4 hr.): 4.1
- Stand-alone biocidal result (microbial log reduction) P. aeruginosa ([3]; 1 hr.): >4.7
- Stand-alone biocidal result (microbial log reduction) P. aeruginosa ([3]; 4 hr.): >4.7
- Stand-alone biocidal result (microbial log reduction) S. marcescens ([4]; 1 hr.): 3.8
- Stand-alone biocidal result (microbial log reduction) S. marcescens ([4]; 4 hr.): >4.8
- Stand-alone biocidal result (microbial log reduction) S. aureus ([5]; 1 hr.): >4.8
- Stand-alone biocidal result (microbial log reduction) S. aureus ([5]; 4 hr.): >4.8

Structure (SMILES): CCCCCCCC(=O)OCCC[N+](C)(C)C [Compound 2, N-capryloyloxypropyl-N,N,N-trimethylammonium iodide]
- log reduction at 25 ppm ([1]; 1 hr.): 0
- log reduction at 25 ppm ([1]; 4 hr.): 0.2
- log reduction at 25 ppm ([2]; 1 hr.): 0.1
- log reduction at 25 ppm ([2]; 4 hr.): 0.6
- Stand-alone biocidal result (microbial log reduction) P. aeruginosa ([3]; 1 hr.): TNTC
- Stand-alone biocidal result (microbial log reduction) P. aeruginosa ([3]; 4 hr.): TNTC
- Stand-alone biocidal result (microbial log reduction) S. marcescens ([4]; 1 hr.): TNTC
- Stand-alone biocidal result (microbial log reduction) S. marcescens ([4]; 4 hr.): TNTC
- Stand-alone biocidal result (microbial log reduction) S. aureus ([5]; 1 hr.): TNTC
- Stand-alone biocidal result (microbial log reduction) S. aureus ([5]; 4 hr.): TNTC
